# Species on record: Rattus norvegicus
# Assay: DrugMatrix - Regimen: Daily Repeat
# Format: toxicity, organism-based, Sprague-Dawley
# Set-up: regimen Daily Repeat, gender Male, age 6-8 weeks
# Settings: in vivo, po, route oral GAVAGE, vehicle .5 % CMC; for ABSOLUTE BASOPHIL / ABSOLUTE EOSINOPHIL / ABSOLUTE LYMPHOCYTE / ABSOLUTE MONOCYTE / ABSOLUTE SEGMENTED NEUTROPHIL / BASOPHIL / EOSINOPHIL / ERYTHROCYTE COUNT / HEMATOCRIT / HEMOGLOBIN / LEUKOCYTE COUNT / LYMPHOCYTE / MEAN CORPUSCULAR HEMOGLOBIN / MEAN CORPUSCULAR HEMOGLOBIN CONCENTRATION / MEAN CORPUSCULAR VOLUME / MONOCYTE / NEUTROPHIL / NUCLEATED RED BLOOD CELLS / PLATELET COUNT: tissue Blood; for ALANINE AMINOTRANSFERASE / ALBUMIN / ALKALINE PHOSPHATASE / ASPARTATE AMINOTRANSFERASE / BLOOD UREA NITROGEN / CARBON DIOXIDE / CHLORIDE / CHOLESTEROL / CREATINE PHOSPHOKINASE / CREATININE / GLUCOSE / LACTATE DEHYDROGENASE / LIPASE / PHOSPHORUS / POTASSIUM / SODIUM / TOTAL BILIRUBIN / TOTAL PROTEIN / URIC ACID: tissue Plasma
# [1] = 50 mg/kg, 72 h, dose level Low, time 3 day
# [2] = 50 mg/kg, 120 h, dose level Low, time 5 day
# [3] = 1200 mg/kg, 72 h, dose level High, time 3 day
# [4] = 1200 mg/kg, 120 h, dose level High, time 5 day
smiles,measurement,setting,value
CC[C@H](C)C(=O)O[C@H]1CCC=C2C=C[C@H](C)[C@H](CC[C@@H]3C[C@@H](O)CC(=O)O3)[C@H]21 [MEVASTATIN],ABSOLUTE BASOPHIL,[1],0 CELLS/uL
same,ABSOLUTE EOSINOPHIL,[1],41.33 CELLS/uL
same,ABSOLUTE LYMPHOCYTE,[1],11887.33 CELLS/uL
same,ABSOLUTE MONOCYTE,[1],84.33 CELLS/uL
same,ABSOLUTE SEGMENTED NEUTROPHIL,[1],587 CELLS/uL
same,BASOPHIL,[1],0%
same,EOSINOPHIL,[1],0.33%
same,ERYTHROCYTE COUNT,[1],5.78 x10E6/uL
same,HEMATOCRIT,[1],37.3%
same,HEMOGLOBIN,[1],14.77 G/DL
same,LEUKOCYTE COUNT,[1],12.6 x10E3/uL
same,LYMPHOCYTE,[1],94.33%
same,MEAN CORPUSCULAR HEMOGLOBIN,[1],25.53 pg
same,MEAN CORPUSCULAR HEMOGLOBIN CONCENTRATION,[1],39.6 G/DL
same,MEAN CORPUSCULAR VOLUME,[1],64.47 fL
same,MONOCYTE,[1],0.67%
same,NEUTROPHIL,[1],4.67%
same,NUCLEATED RED BLOOD CELLS,[1],1 /100WBC
same,PLATELET COUNT,[1],1148.33 x10E3/uL
same,ALANINE AMINOTRANSFERASE,[1],48.67 u/L
same,ALBUMIN,[1],4.43 G/DL
same,ALKALINE PHOSPHATASE,[1],400 u/L
same,ASPARTATE AMINOTRANSFERASE,[1],85.67 u/L
same,BLOOD UREA NITROGEN,[1],16 mg/dL
same,CARBON DIOXIDE,[1],25.33 mmol/L
same,CHLORIDE,[1],100.33 MEQ/L
same,CHOLESTEROL,[1],87 mg/dL
same,CREATINE PHOSPHOKINASE,[1],404 u/L
same,CREATININE,[1],0.2 mg/dL
same,GLUCOSE,[1],161 mg/dL
same,LACTATE DEHYDROGENASE,[1],232.67 u/L
same,LIPASE,[1],8.67 u/L
same,PHOSPHORUS,[1],14.2 mg/dL
same,POTASSIUM,[1],6.89 MEQ/L
same,SODIUM,[1],146.63 MEQ/L
same,TOTAL BILIRUBIN,[1],0.33 mg/dL
same,TOTAL PROTEIN,[1],6.2 G/DL
same,URIC ACID,[1],1.93 mg/dL
same,ABSOLUTE BASOPHIL,[2],0 CELLS/uL
same,ABSOLUTE EOSINOPHIL,[2],47 CELLS/uL
same,ABSOLUTE LYMPHOCYTE,[2],15631 CELLS/uL
same,ABSOLUTE MONOCYTE,[2],0 CELLS/uL
same,ABSOLUTE SEGMENTED NEUTROPHIL,[2],1122 CELLS/uL
same,BASOPHIL,[2],0%
same,EOSINOPHIL,[2],0.33%
same,ERYTHROCYTE COUNT,[2],5.52 x10E6/uL
same,HEMATOCRIT,[2],35.63%
same,HEMOGLOBIN,[2],13.8 G/DL
same,LEUKOCYTE COUNT,[2],16.8 x10E3/uL
same,LYMPHOCYTE,[2],93%
same,MEAN CORPUSCULAR HEMOGLOBIN,[2],25.03 pg
same,MEAN CORPUSCULAR HEMOGLOBIN CONCENTRATION,[2],38.77 G/DL
same,MEAN CORPUSCULAR VOLUME,[2],64.6 fL
same,MONOCYTE,[2],0%
same,NEUTROPHIL,[2],6.67%
same,NUCLEATED RED BLOOD CELLS,[2],1 /100WBC
same,PLATELET COUNT,[2],1219.33 x10E3/uL
same,ALANINE AMINOTRANSFERASE,[2],52.67 u/L
same,ALBUMIN,[2],4.5 G/DL
same,ALKALINE PHOSPHATASE,[2],335.67 u/L
same,ASPARTATE AMINOTRANSFERASE,[2],79.67 u/L
same,BLOOD UREA NITROGEN,[2],15.67 mg/dL
same,CARBON DIOXIDE,[2],25.67 mmol/L
same,CHLORIDE,[2],103 MEQ/L
same,CHOLESTEROL,[2],67.33 mg/dL
same,CREATINE PHOSPHOKINASE,[2],212.33 u/L
same,CREATININE,[2],0.19 mg/dL
same,GLUCOSE,[2],153.33 mg/dL
same,LACTATE DEHYDROGENASE,[2],162 u/L
same,LIPASE,[2],9 u/L
same,PHOSPHORUS,[2],12.43 mg/dL
same,POTASSIUM,[2],6.8 MEQ/L
same,SODIUM,[2],146.23 MEQ/L
same,TOTAL BILIRUBIN,[2],0.23 mg/dL
same,TOTAL PROTEIN,[2],6.3 G/DL
same,URIC ACID,[2],1.63 mg/dL
same,ABSOLUTE BASOPHIL,[3],0 CELLS/uL
same,ABSOLUTE EOSINOPHIL,[3],56 CELLS/uL
same,ABSOLUTE LYMPHOCYTE,[3],15055 CELLS/uL
same,ABSOLUTE MONOCYTE,[3],329 CELLS/uL
same,ABSOLUTE SEGMENTED NEUTROPHIL,[3],1226.67 CELLS/uL
same,BASOPHIL,[3],0%
same,EOSINOPHIL,[3],0.33%
same,ERYTHROCYTE COUNT,[3],5.72 x10E6/uL
same,HEMATOCRIT,[3],38.57%
same,HEMOGLOBIN,[3],15.2 G/DL
same,LEUKOCYTE COUNT,[3],16.67 x10E3/uL
same,LYMPHOCYTE,[3],90.33%
same,MEAN CORPUSCULAR HEMOGLOBIN,[3],26.6 pg
same,MEAN CORPUSCULAR HEMOGLOBIN CONCENTRATION,[3],39.43 G/DL
same,MEAN CORPUSCULAR VOLUME,[3],67.5 fL
same,MONOCYTE,[3],2%
same,NEUTROPHIL,[3],7.33%
same,NUCLEATED RED BLOOD CELLS,[3],0.67 /100WBC
same,PLATELET COUNT,[3],1303 x10E3/uL
same,ALANINE AMINOTRANSFERASE,[3],47.67 u/L
same,ALBUMIN,[3],4.63 G/DL
same,ALKALINE PHOSPHATASE,[3],402.33 u/L
same,ASPARTATE AMINOTRANSFERASE,[3],96.67 u/L
same,BLOOD UREA NITROGEN,[3],20 mg/dL
same,CARBON DIOXIDE,[3],29.33 mmol/L
same,CHLORIDE,[3],102.67 MEQ/L
same,CHOLESTEROL,[3],68.33 mg/dL
same,CREATINE PHOSPHOKINASE,[3],235 u/L
same,CREATININE,[3],0.16 mg/dL
same,GLUCOSE,[3],180 mg/dL
same,LACTATE DEHYDROGENASE,[3],194 u/L
same,LIPASE,[3],9 u/L
same,PHOSPHORUS,[3],14.33 mg/dL
same,POTASSIUM,[3],7.63 MEQ/L
same,SODIUM,[3],146.93 MEQ/L
same,TOTAL BILIRUBIN,[3],0.13 mg/dL
same,TOTAL PROTEIN,[3],6.37 G/DL
same,URIC ACID,[3],2.77 mg/dL
same,ABSOLUTE BASOPHIL,[4],0 CELLS/uL
same,ABSOLUTE EOSINOPHIL,[4],0 CELLS/uL
same,ABSOLUTE LYMPHOCYTE,[4],14826.67 CELLS/uL
same,ABSOLUTE MONOCYTE,[4],346.67 CELLS/uL
same,ABSOLUTE SEGMENTED NEUTROPHIL,[4],1426.67 CELLS/uL
same,BASOPHIL,[4],0%
same,EOSINOPHIL,[4],0%
same,ERYTHROCYTE COUNT,[4],5.39 x10E6/uL
same,HEMATOCRIT,[4],33.63%
same,HEMOGLOBIN,[4],13.5 G/DL
same,LEUKOCYTE COUNT,[4],16.6 x10E3/uL
same,LYMPHOCYTE,[4],89.67%
same,MEAN CORPUSCULAR HEMOGLOBIN,[4],25.1 pg
same,MEAN CORPUSCULAR HEMOGLOBIN CONCENTRATION,[4],40.2 G/DL
same,MEAN CORPUSCULAR VOLUME,[4],62.43 fL
same,MONOCYTE,[4],2%
same,NEUTROPHIL,[4],8.33%
same,NUCLEATED RED BLOOD CELLS,[4],0 /100WBC
same,PLATELET COUNT,[4],1567.67 x10E3/uL
same,ALANINE AMINOTRANSFERASE,[4],54.33 u/L
same,ALBUMIN,[4],4.5 G/DL
same,ALKALINE PHOSPHATASE,[4],319 u/L
same,ASPARTATE AMINOTRANSFERASE,[4],97 u/L
same,BLOOD UREA NITROGEN,[4],19.33 mg/dL
same,CARBON DIOXIDE,[4],33 mmol/L
same,CHLORIDE,[4],100.33 MEQ/L
same,CHOLESTEROL,[4],65.33 mg/dL
same,CREATINE PHOSPHOKINASE,[4],319.67 u/L
same,CREATININE,[4],0.19 mg/dL
same,GLUCOSE,[4],136.67 mg/dL
same,LACTATE DEHYDROGENASE,[4],464 u/L
same,LIPASE,[4],8.67 u/L
same,PHOSPHORUS,[4],12.33 mg/dL
same,POTASSIUM,[4],6.95 MEQ/L
same,SODIUM,[4],143.97 MEQ/L
same,TOTAL BILIRUBIN,[4],0.2 mg/dL
same,TOTAL PROTEIN,[4],6.1 G/DL
same,URIC ACID,[4],1.8 mg/dL

# Reference: ChEMBL document CHEMBL3885881, “DrugMatrix”
